Measurements taken from PMC9883013 (eLife, 2023).
Where “and” joins values, the source holds several entries; their conditions need not be identical. Identical values can stand only once. Entries after “also recorded” stand apart in the source; their conditions may differ. Like-named read-outs stand apart in the source and are kept apart here.

What was measured:
NCCc1c[nH]c2ccc(O)cc12 = experiment: cells, lysate or membranes; details: other: absence of any inhibitor; pH 7.4
[1] = biological target: T1, wild-type GFP-tagged human SERT (Homo sapiens, UniProt P31645); experiment: Whole-cell patch clamp recordings of currents through SERT; assay type: cell-based; details: for transient peak current on application of the compound: 100 µM, absence of substrate
T1 construct: expressed in transfected cells
Protocol: HEK293 cells stably expressing wild-type GFP-tagged human SERT were seeded at low density on poly-D-lysine-coated dishes. Twenty hr after seeding, these cells were subjected to patch clamp recordings in the whole-cell configuration. In most instances cells were continuously maintained in an external solution containing 140 mM NaCl, 3 mM KCl, 2.5 mM CaCl2, 2 mM MgCl2, 20 mM glucose, and 10 mM HEPES (pH adjusted to 7.4 with NaOH) and the drugs were diluted therein. The internal solution in the patch pipette contained 133 mM potassium gluconate (CH2OH(CHOH)4COOK), 5.9 mM NaCl, 1 mM CaCl2, 0.7 mM MgCl2, 10 mM HEPES, 10 mM EGTA (pH adjusted to 7.2 with KOH). Drugs were applied using a 4-tube ALA perfusion manifold (NPI Electronic GmbH, Germany) and a DAD-12 superfusion system (Adams & List, Westbury, NY, USA) allowing for complete solution exchange around the cells within 100 ms. Current amplitudes and associated kinetics were quantified using Clampfit 10.2 software. Passive holding currents were subtracted, and the traces were filtered using a 100 Hz digital Gaussian low-pass filter.

SERT-PG^601,602AA [2] = biological target: T2, SERT-PG^601,602AA (Homo sapiens, UniProt P31645, G602A/P601A); experiment: Functional rescue (pharmacochaperoning) of folding-deficient SERT mutant, [3H]5-HT uptake after 24 hr preincubation; assay type: cell-based; details: for [3H]5-HT uptake normalized to untreated wild-type SERT: 30 µM for 24 hr, 0.1 µM [3H]5-HT, untreated mutant 14.8 ± 5.3%; for Emax: read-out: EMAX of pharmacochaperoning (rescued uptake, % of transport velocity in cells expressing wild-type SERT)
T2 construct: expressed in transfected cells; host or cells: HEK293 (ATCC CRL-1573), transient PEI transfection

[3] = biological target: T3, wild-type human YFP-tagged SERT (Homo sapiens, UniProt P31645); experiment: Saturation kinetics (KM, Vmax) of 5-HT uptake by SERT after preincubation with inhibitor
SERT-PG^601,602AA [4] = biological target: T2, SERT-PG^601,602AA; experiment: Immunoblotting of glycosylation state (mature vs core-glycosylated band) of the SERT mutant; assay type: cell-based
[5] = biological target: T3, wild-type human YFP-tagged SERT; experiment: Inhibition of SERT-mediated [3H]5-HT uptake in HEK293 cells stably expressing YFP-SERT; assay type: cell-based; design: expressed in transfected cells
WT-SERT = WT-SERT (Homo sapiens, UniProt P31645); experiment: [3H]5-HT uptake by cells transiently expressing WT-SERT after 24 hr preincubation; details: 30 µM for 24 hr; 0.1 µM [3H]5-HT
[6] = system: YFP-tagged human SERT-PG^601,602AA in serotonergic neurons; experiment: Delivery of mutant transporter to the fan-shaped body in transgenic flies fed with drug; assay type: in vivo, Drosophila melanogaster; details: 100 µM in food for 48 hr, 3-day old male flies
From the text: (§1) The transgenic UAS reporter lines for YFP-tagged human wild-type SERT and SERT-PG^601,602AA were generated using the pUAST-attB vector (gift from Drs Bischof and Basler, University of Zürich) and injected into embryos of ZH-86Fb flies (Bloomington stock no. 24749). Positive transformants were isolated and selected. TRH-T2A-Gal4 (Bloomington stock no. 84694) was used to drive the expression of transporters in serotonergic neurons. […] The brains of these flies were then imaged using confocal microscopy. All flies were kept at 25°C, and all crosses were performed at 25°C.
(§2) Adult fly brains were dissected in PBS and fixed in 2% paraformaldehyde in PBS for 1 hr at room temperature. Brains were then washed three times in 0.1% Triton X-100 in PBS for 20 min on a shaker. Blocking was performed in 10% goat serum for 1 hr at room temperature on a shaker. Brains were then incubated in primary antibody overnight in PBS containing 3% BSA and 0.3% Triton X-100 at 4°C on a shaker. The rabbit polyclonal IgG directed against GFP (1:1000 dilution; A-11122, Invitrogen) and anti-serotonin antibody (S5545, Sigma-Aldrich) were used as primary antibodies. After three washes for 20 min with PBS containing 0.1% Triton X-100, the brains were incubated overnight at 4°C with a secondary antibody in PBS containing 0.3% Triton X-100 on a shaker. […]

[7] = system: YFP-tagged wild-type human SERT in serotonergic neurons; experiment: Localization of wild-type transporter in the fan-shaped body in transgenic flies fed with drug; assay type: in vivo, Drosophila melanogaster; details: 100 µM in food for 48 hr, flies harboring wild-type human SERT
From the text: as §1, §2

[8] = biological target: T1, wild-type GFP-tagged human SERT; experiment: Whole-cell patch clamp recordings of currents through SERT; assay type: cell-based; details: 100 µM pre-applied for 1 s or 3 s in the absence of 5-HT; internal 150 mM NaCl
SERT = biological target: T4, SERT (Homo sapiens, UniProt P31645); experiment: Inhibition of [3H]citalopram binding to membranes from HEK293 cells expressing GFP-SERT
T4 construct: expressed in transfected cells
Protocol: Membranes were prepared from HEK293 cells stably expressing GFP-SERT. […] The pellets were resuspended in a buffer containing 20 mM HEPES, 2 mM MgCl2, 1 mm EDTA, pH adjusted to 7.4 with NaOH, subjected to freeze-thaw cycles in liquid nitrogen and sonicated on ice three times for 10 s with 30 s intervals. Following another centrifugation step, the whole-cell membrane pellets were resuspended in buffer and protein concentration was estimated by dye binding (Coomassie Brilliant Blue R-250; Bio-Rad, USA). […] Binding reactions were also done in the presence of 120 mM K^+ buffer (buffer composition: 20 mM Tris-HCl, pH 7.4, 1 mM EDTA, 2 mM MgCl2, 120 mM KCl; 4 mM Na^+ were present from the carry-over of HEPES·NaOH and from Na·EDTA). For binding reactions under these conditions, 7–8 µg of membranes were used to improve the dynamic range of binding. The binding reactions were terminated by harvesting the membranes on glass fiber filters precoated with polyethylenimine and rapid washing with ice-cold wash buffer (10 mM Tris·HCl, pH 7.4, 120 mM NaCl, 2 mM MgCl2). The radioactivity trapped on the filters was quantified by liquid scintillation counting. Nonspecific binding was measured in the presence of 10 µM paroxetine.

[9] = inhibition of 10 µM 5-HT-induced steady current
[10] = preincubation with 10 µM inhibitor
[11] = preincubation with 30 µM inhibitor
[12] = preincubation with 3 µM inhibitor

“wild-type human YFP-tagged SERT (Homo sapiens)” gave a Km (NCCc1c[nH]c2ccc(O)cc12) of 2.3 µM.

For `O=CNC(Cc1ccc2c(c1)OCO2)Cc1ccc2c(c1)OCO2` [ECSI#6, N-formyl-1,3-bis (3,4-methylenedioxyphenyl)-prop-2-yl-amine], the IC50 ([1]; 30 µM 5-HT, ECSI#6 co-applied, read-out: IC50 of block of the 5-HT-induced steady current) was 4.5 µM and ~5 µM, the “effect on 5-HT-induced steady current” value ([1]; 100 µM in continuous presence of 10 µM 5-HT) was “complete suppression of the current” and the “effect of intracellular application on 5-HT-induced current amplitude” value ([1]; 100 µM in the electrode solution, 30 µM 5-HT) was “only had a modest effect, if any; also recorded: did not cause an appreciable current block”. The “ratio of the second and first pulse (peak 2/peak 1)” value ([1]; 100 µM pre-applied for 1 s or 3 s) was “always close to one”, the “transient peak current on application of the compound” value (shortened to “transient peak current on application”) [1] was “failed to do so” and the “koff (y-intercept of kapp vs concentration)” value [1, 9] was 1.7±0.5 s^–1. The “kon (slope of kapp vs concentration)” value [1, 9] was 2.1*10^4±3.5*10^3 M^–1 s^–1, the “[3H]5-HT uptake normalized to untreated wild-type SERT” value (shortened to “[3H]5-HT uptake normalized”) (SERT-PG^601,602AA [2]) was 56.5 ± 5.1% and the EC50 (SERT-PG^601,602AA [2]; 24 hr preincubation, read-out: EC50 for pharmacochaperoning (rescued uptake)) was 2.9 µM. For the same molecule, the Emax (SERT-PG^601,602AA [2]) was 52%, the “mode of inhibition of substrate uptake by SERT” value (from here on “mode of inhibition … by SERT”) [3] was “uncompetitive inhibition” and the “VMAX of 5-HT transport by SERT” value [3, 10] was 89.5 pmol min^–1 10^–6 cells. For the same molecule, the “VMAX of 5-HT transport by SERT” value [3, 11] was 49.9 pmol min^–1 10^–6 cells, the “VMAX of 5-HT transport by SERT” value ([3]; preincubation with 100 µM inhibitor) was 20.8 pmol min^–1 10^–6 cells and the EC50 (SERT-PG^601,602AA [4]) was 0.44 µM. The “EMAX of ratio of mature (M) to core-glycosylated band (C)” value (SERT-PG^601,602AA [4]; 24 hr treatment, densitometry, corrected for Gβ) was 1.42 AU, the IC50 ([5]; IC50(0.1), inhibition of [3H]5-HT uptake, 0.1 µM [3H]5-HT, absence of additional unlabeled 5-HT) was 441 µM and the IC50 ([5]; IC50(1), inhibition of [3H]5-HT uptake, 0.1 µM [3H]5-HT, presence of 1 µM unlabeled 5-HT) was 74.1 µM. It also gave an IC50 ([5]; IC50(3), inhibition of [3H]5-HT uptake, 0.1 µM [3H]5-HT, presence of 3 µM unlabeled 5-HT) of 25.6 µM, an IC50 ([5]; IC50(10), inhibition of [3H]5-HT uptake, 0.1 µM [3H]5-HT, presence of 10 µM unlabeled 5-HT) of 19.3 µM and an IC50 ([5]; low 5-HT concentration (0.1 µM), read-out: IC50 value in the uptake assay) of ~500 µM. For the same molecule, the “[3H]5-HT uptake normalized” value (WT-SERT) was 103.3 ± 11.3%, the “delivery of the mutant transporter to the presynaptic territory (fan-shaped body)” value [6] was “partially restored the delivery of the mutant transporter to the presynaptic territory” and the “effect on level of fluorescence in the fan-shaped body” value [7] was “did not have any appreciable effect”. The “effect of pre-application on 5-HT-induced peak current amplitude” value [8] was “did not result in the reduction of the peak current amplitude”, the “fold more potent in displacing [3H]citalopram in 120 mM KCl than in 120 mM NaCl” value (SERT) was “about 10 fold” and the “binding relative to serotonin (Dixon plots)” value (SERT; 1 and 10 µM serotonin) was “mutually exclusive”. The IC50 (SERT; IC50(1 µM 5-HT), inhibition of [3H]citalopram binding, 120 mM Na+, 1 µM 5-HT) was 28.6 µM, the IC50 (SERT; IC50(10 µM 5-HT), inhibition of [3H]citalopram binding, 120 mM Na+, 10 µM 5-HT) was 60 µM and the IC50 (SERT; IC50(no 5-HT), inhibition of [3H]citalopram binding, 120 mM Na+, 3 nM [3H]citalopram, no 5-HT) was 16 µM. For the same molecule, the IC50 (SERT; buffer with 120 mM K+, read-out: IC50(120 K+), inhibition of [3H]citalopram binding) was 4.18 µM and 5 µM, the IC50 (SERT; buffer with 120 mM Na+ (Na+/K+ comparison), read-out: IC50(120 Na+), inhibition of [3H]citalopram binding) was 46.2 µM and the “affinity estimate, fold lower than the KD of 1 µM required for ToNaS” value (SERT; presence of 10 µM 5-HT) was > 30 fold.

In the case of `COC(=O)[C@H]1[C@@H](OC(=O)c2ccccc2)C[C@@H]2CC[C@H]1N2C` [cocaine], the “kapp of current inhibition, level at which it leveled off” value ([1]; 10 µM 5-HT-induced steady current, –60 mV) is reported as “about 2 s^–1”, the “transient peak current on application” value [1] is reported as “induced transient peak currents” and the “mode of inhibition … by SERT” value [3] is reported as “competitive”. For the same molecule, the “VMAX of 5-HT transport by SERT” value [3, 12] was 118.3 pmol min^–1 10^–6 cells, the “VMAX of 5-HT transport by SERT” value [3, 10] was 121.1 pmol min^–1 10^–6 cells and the “VMAX of 5-HT transport by SERT” value [3, 11] was 120.1 pmol min^–1 10^–6 cells. For the same molecule, the “effect on SERT species carrying mature glycans” value (SERT-PG^601,602AA [4]; 30 µM (saturating concentration), 24 hr) was “did not cause any appreciable increase”, the “[3H]5-HT uptake normalized” value (WT-SERT) was 111.4 ± 4.2% and the “potency in inhibiting [3H]citalopram binding in 120 mM KCl compared with 120 mM NaCl” value (SERT) was “substantially less potent (by an order of magnitude)”.

`CCC1CC2CC3c4[nH]c5ccc(O)cc5c4CCN(C2)C13` (stereo not drawn) [noribogaine, reference compound] was tested, and the “transient peak current on application” value [1] was “induced transient peak currents”, the “[3H]5-HT uptake normalized” value (SERT-PG^601,602AA [2]) was 71.9 ± 6.4% and the Emax (SERT-PG^601,602AA [2]) was 69.5%. The “mode of inhibition … by SERT” value [3] was “non-competitive”, the “VMAX of 5-HT transport by SERT” value ([3]; preincubation with 1 µM inhibitor) was 82.4 pmol min^–1 10^–6 cells and the “VMAX of 5-HT transport by SERT” value [3, 12] was 39.9 pmol min^–1 10^–6 cells. For the same molecule, the “VMAX of 5-HT transport by SERT” value [3, 10] was 19.5 pmol min^–1 10^–6 cells, the “[3H]5-HT uptake normalized” value (WT-SERT) was 93.5 ± 28.8% and the “delivery of the mutant transporter to the presynaptic territory (fan-shaped body)” value [6] was “partially restored the delivery of the mutant transporter to the presynaptic territory”. For the same molecule, the “effect on level of fluorescence in the fan-shaped body” value [7] was “did not have any appreciable effect” and the “potency in inhibiting [3H]citalopram binding in 120 mM KCl compared with 120 mM NaCl” value (SERT) was “distinct binding preference was not obvious”.
